According to ChEMBL document CHEMBL1201862, “PubChem BioAssay data set” (2004):
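Cells were grown in 96-well plates and exposed to each compound for 48 hours at five concentrations; endpoints were interpolated linearly between bracketing concentrations, or set to the highest concentration if not reached. Abbreviation: GI50, concentration required for 50% inhibition of growth.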 The source made the active and inactive calls. Rule as the data show it: active = GI50 up to about 1.1 µM and inactive = higher.

Legend:
Assay in all cases: NCI anticancer screen, dose series, 48 h
786-0 = test system: 786-0
HCC 2998 = test system: HCC 2998
HT-29 = test system: HT-29
K562 = test system: K562
M14 = test system: M14
MCF7 = test system: MCF7
OVCAR-3 = test system: OVCAR-3
OVCAR-5 = test system: OVCAR-5
PC-3 = test system: PC-3
RXF 393 = test system: RXF 393
SK-MEL-5 = test system: SK-MEL-5
SK-OV-3 = test system: SK-OV-3
SR = test system: SR
T47D = test system: T47D
TK-10 = test system: TK-10
U-251 = test system: U-251
UO-31 = test system: UO-31
HOP-92 = test system: HOP-92
HL-60 = test system: HL-60

Measured: GI50

CC(C)OC(=O)/C=C/C(=O)O/C=C/[N+](=O)[O-]
inactive: 786-0 29.2 µM | HCC 2998 20.5 µM | HT-29 24.5 µM | K562 7.64 µM | M14 30 µM | MCF7 23 µM | OVCAR-3 31.7 µM | OVCAR-5 37.6 µM | PC-3 26.6 µM | RXF 393 18.3 µM | SK-MEL-5 31.6 µM | SK-OV-3 66.8 µM | SR 24.4 µM | T47D 12.7 µM | TK-10 32.6 µM | U-251 21.7 µM | UO-31 36.1 µM

O=C(c1ccc2c3c(ccc(C(=O)C(F)(F)F)c13)CC2)C(F)(F)F
inactive: 786-0 57.5 µM | HCC 2998 > 100 µM | HOP-92 27 µM | HT-29 52.1 µM | M14 34.4 µM | OVCAR-3 69.8 µM | OVCAR-5 > 100 µM | RXF 393 55.6 µM | SK-OV-3 > 100 µM | SR 60.1 µM | TK-10 53 µM | U-251 63.2 µM | UO-31 43.2 µM

CN(C)CCNC(=O)c1cccc2c1nc(-c1ccccc1)c1ccccc12
inactive: 786-0 3.97 µM | HCC 2998 3.82 µM | HL-60 1.26 µM | HOP-92 2.83 µM | HT-29 3.35 µM | K562 2.17 µM | M14 2.07 µM | OVCAR-3 8.09 µM | OVCAR-5 4.66 µM | RXF 393 2.58 µM | SK-MEL-5 2.13 µM | SK-OV-3 6.24 µM | TK-10 3.93 µM | U-251 5 µM | UO-31 1.82 µM

CS(=O)(=O)CSCSSCS(C)(=O)=O
inactive: 786-0 20.1 µM | HCC 2998 > 100 µM | HL-60 21.1 µM | HOP-92 27.7 µM | HT-29 > 59.7 µM | K562 23.8 µM | M14 19.2 µM | OVCAR-3 47.1 µM | OVCAR-5 43.2 µM | RXF 393 17.1 µM | SK-MEL-5 40.8 µM | SK-OV-3 > 100 µM | SR 16.5 µM | TK-10 > 90.6 µM | U-251 37.1 µM | UO-31 32.1 µM

COc1ccc(CNc2nc3ccccc3nc2-c2cccs2)cc1OC
inactive: 786-0 33.5 µM | HCC 2998 30.8 µM | HL-60 22 µM | HOP-92 13.4 µM | HT-29 46.2 µM | K562 59.4 µM | OVCAR-3 51.3 µM | OVCAR-5 > 100 µM | RXF 393 41.9 µM | SR 15.5 µM | TK-10 74 µM | U-251 75.5 µM | UO-31 22.6 µM

Cc1ccccc1NC(=O)C(=O)C(c1cnc2ccc([N+](=O)[O-])cc2n1)[N+](=O)[O-] (centres undefined)
inactive: 786-0 > 100 µM | HCC 2998 > 100 µM | HL-60 24.9 µM | HOP-92 > 100 µM | HT-29 > 100 µM | K562 39.1 µM | M14 > 100 µM | OVCAR-5 > 100 µM | RXF 393 > 100 µM | SK-MEL-5 87.3 µM | SK-OV-3 > 100 µM | SR > 100 µM | TK-10 > 100 µM | U-251 > 100 µM | UO-31 54 µM

CC1=C2CCCC2=C/C(=N/Nc2ccc([N+](=O)[O-])cc2[N+](=O)[O-])CC1
inactive: 786-0 > 100 µM | HL-60 > 100 µM | HOP-92 > 100 µM | HT-29 > 100 µM | K562 > 100 µM | M14 > 100 µM | OVCAR-3 > 100 µM | OVCAR-5 > 100 µM | RXF 393 > 100 µM | SK-MEL-5 > 100 µM | SK-OV-3 > 100 µM | SR > 100 µM | TK-10 > 100 µM | U-251 > 100 µM | UO-31 > 100 µM

N#C/C1=C(\N)CCSSSC1
inactive: 786-0 35.8 µM | HCC 2998 54.8 µM | HL-60 > 10 µM | HOP-92 32.1 µM | HT-29 31 µM | K562 55.3 µM | M14 28.8 µM | OVCAR-3 46.3 µM | OVCAR-5 53.1 µM | RXF 393 58.3 µM | SK-MEL-5 26.1 µM | SK-OV-3 52.5 µM | SR 33.7 µM | TK-10 > 100 µM | U-251 31.4 µM | UO-31 56.4 µM

CC(C)[Si](OC1=C(C(=O)N(C)c2ccccc2Cl)CCC1)(C(C)C)C(C)C
inactive: 786-0 21.7 µM | HOP-92 18.3 µM | HT-29 15.3 µM | M14 19 µM | OVCAR-3 16.7 µM | OVCAR-5 9.64 µM | RXF 393 18.3 µM | SK-MEL-5 24.8 µM | SK-OV-3 16.5 µM | T47D 19.7 µM | TK-10 17.8 µM | U-251 16 µM | UO-31 15.8 µM

Cc1ccc(/N=N/C(=O)NNc2ccc(C)cc2Br)c(Br)c1
inactive: 786-0 18.4 µM | HCC 2998 16.4 µM | HL-60 18.7 µM | HT-29 40.9 µM | K562 16.4 µM | M14 24.5 µM | MCF7 21.8 µM | OVCAR-3 19.9 µM | OVCAR-5 19.4 µM | PC-3 11.9 µM | SK-MEL-5 16.9 µM | SR 14.7 µM | T47D 17.8 µM | TK-10 31.1 µM | U-251 16.1 µM | UO-31 16 µM

CCc1cc(Cc2cc(CC)c(NC(=O)C3=CC(=O)CC(c4ccc(OC)cc4)O3)c(CC)c2Cl)c(Cl)c(CC)c1NC(=O)C1=CC(=O)CC(c2ccc(OC)cc2)O1 (centres undefined)
inactive: 786-0 18.4 µM | HCC 2998 16.7 µM | HL-60 23.2 µM | HOP-92 20.8 µM | HT-29 20.2 µM | K562 32.1 µM | M14 17 µM | OVCAR-3 19.1 µM | OVCAR-5 20.7 µM | RXF 393 17.9 µM | SK-MEL-5 20.3 µM | SK-OV-3 17 µM | SR 22.5 µM | TK-10 19.7 µM | U-251 12.9 µM | UO-31 16.5 µM

C=Cc1nc2nnc(CCCCCCCCc3nnc4nc(C=C)[nH]n34)n2[nH]1
inactive: 786-0 80.9 µM | HCC 2998 75.3 µM | HL-60 34 µM | HT-29 > 100 µM | K562 21.6 µM | M14 > 100 µM | MCF7 80.7 µM | OVCAR-3 > 100 µM | OVCAR-5 > 100 µM | PC-3 > 100 µM | RXF 393 > 100 µM | SK-MEL-5 41.6 µM | SK-OV-3 > 100 µM | TK-10 > 100 µM | U-251 30.7 µM | UO-31 > 100 µM

Cc1nnc2n1N=C(c1ccc(-c3ccc([N+](=O)[O-])cc3)o1)CS2
inactive: 786-0 > 100 µM | HCC 2998 > 100 µM | HL-60 > 100 µM | HOP-92 > 100 µM | K562 > 100 µM | M14 > 100 µM | OVCAR-3 > 100 µM | OVCAR-5 > 100 µM | SK-OV-3 > 100 µM | SR > 100 µM | TK-10 > 100 µM | U-251 > 100 µM | UO-31 > 100 µM
